Measured values from ChEMBL document CHEMBL4196039, “Pan-NS3 protease inhibitors of hepatitis C virus based on an R3-elongated pyrazinone scaffold” (Eur J Med Chem, 2018).
Non-standard residues stand in square brackets, D forms with d. Residues, ends and D or L forms follow the SMILES beside them. dGla = N[C@H](CC(C(=O)O)C(=O)O)C(=O)O; Cha = N[C@@H](CC1CCCCC1)C(=O)O

Columns and labels:
NS3 [1] = target: T1, NS3 (Hepatitis C virus, UniProt A3EZJ3); experiment: Inhibition of HCV genotype-1a full length NS3 protease preincubated for 10 mins followed by Ac-DED(Edans)EEAbuj-[COO]ASK(Dabcyl)-NH2 addition in presence of co-factor 2K-NS4A by fluorescence assay; set-up: species or system Hepatitis C virus subtype 1a
NS3 [2] = target: NS3 (Hepatitis C virus, UniProt A3EZJ3, R155K); experiment: Inhibition of HCV genotype-1a full length NS3 protease R155K mutant preincubated for 10 mins followed by Ac-DED(Edans)EEAbuj-[COO]ASK(Dabcyl)-NH2 addition in presence of co-factor 2K-NS4A by fluorescence assay; set-up: species or system Hepatitis C virus subtype 1a
NS3 [3] = target: T1, NS3; experiment: Inhibition of HCV genotype-3a full length NS3 protease preincubated for 10 mins followed by Ac-DED(Edans)EEAbuj-[COO]ASK(Dabcyl)-NH2 addition in presence of co-factor 2K-NS4A by fluorescence assay; set-up: species or system Hepatitis C virus subtype 3a
Hepatitis C virus = experiment: Antiviral activity against HCV genotype 1b infected in human HuH7 cells; type: functional, organism-based, Hepacivirus hominis; conditions: Huh-7
[4] = Cytotoxicity against human HuH7 cell; type: cell-based, Huh-7; conditions: HuH7 cells
NS3 [5] = target: T1, NS3; experiment: Inhibition of HCV genotype-1a NS3 protease; set-up: species or system Hepatitis C virus subtype 1a

T1 sequence (A3EZJ3 whole entry): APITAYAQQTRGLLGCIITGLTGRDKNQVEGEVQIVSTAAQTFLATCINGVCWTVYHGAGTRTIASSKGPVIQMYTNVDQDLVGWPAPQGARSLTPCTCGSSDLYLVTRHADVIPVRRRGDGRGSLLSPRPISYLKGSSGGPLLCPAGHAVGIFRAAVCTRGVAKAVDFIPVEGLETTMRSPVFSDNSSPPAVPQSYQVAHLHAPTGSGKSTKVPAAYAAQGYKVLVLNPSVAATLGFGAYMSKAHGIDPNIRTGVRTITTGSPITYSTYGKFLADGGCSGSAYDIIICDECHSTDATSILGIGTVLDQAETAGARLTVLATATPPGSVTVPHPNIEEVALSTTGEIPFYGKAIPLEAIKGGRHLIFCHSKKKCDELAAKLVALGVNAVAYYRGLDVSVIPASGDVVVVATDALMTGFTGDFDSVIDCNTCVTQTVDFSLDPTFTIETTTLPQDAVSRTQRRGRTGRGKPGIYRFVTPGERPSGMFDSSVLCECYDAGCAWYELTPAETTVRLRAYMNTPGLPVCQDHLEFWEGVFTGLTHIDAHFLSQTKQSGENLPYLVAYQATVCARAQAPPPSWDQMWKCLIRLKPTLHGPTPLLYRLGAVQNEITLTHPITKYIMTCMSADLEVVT
Chain of NS3 (Hepatitis C virus, UniProt A3EZJ3, R155K) (A3EZJ3 entry or part of it R155K): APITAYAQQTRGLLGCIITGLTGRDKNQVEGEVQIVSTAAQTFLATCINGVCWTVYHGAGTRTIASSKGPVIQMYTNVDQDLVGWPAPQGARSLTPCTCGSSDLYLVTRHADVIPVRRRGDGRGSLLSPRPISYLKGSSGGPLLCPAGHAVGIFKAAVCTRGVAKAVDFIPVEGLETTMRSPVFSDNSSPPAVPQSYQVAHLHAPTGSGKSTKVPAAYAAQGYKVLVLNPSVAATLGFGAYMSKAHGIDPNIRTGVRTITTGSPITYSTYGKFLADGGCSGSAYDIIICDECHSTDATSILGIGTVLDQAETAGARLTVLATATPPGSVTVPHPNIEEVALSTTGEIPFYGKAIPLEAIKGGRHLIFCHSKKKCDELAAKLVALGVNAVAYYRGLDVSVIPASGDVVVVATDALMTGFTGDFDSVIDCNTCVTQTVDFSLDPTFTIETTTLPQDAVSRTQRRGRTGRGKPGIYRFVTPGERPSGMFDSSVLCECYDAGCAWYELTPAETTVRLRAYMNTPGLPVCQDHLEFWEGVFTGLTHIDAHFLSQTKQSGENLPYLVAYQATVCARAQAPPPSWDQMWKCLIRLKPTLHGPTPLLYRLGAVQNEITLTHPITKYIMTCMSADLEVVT

SMILES	Ki (NS3 [3]) [nM]	Ki (NS3 [1]) [nM]	also measured
CC1(C)CC(=O)N(C[C@@H](NC(=O)Nc2nc(Cl)c(Cc3ccccc3)n(CC(=O)Nc3cc(F)ccc3C(=O)NS(=O)(=O)c3ccc(C(F)(F)F)cc3)c2=O)C(C)(C)C)C(=O)C1	135	160	Ki (NS3 [2]): 30 nM
CC[C@H](C)[C@H](NC(=O)[C@H](CC(C)C)NC(=O)[C@@H](CC(C(=O)O)C(=O)O)NC(=O)[C@H](CC(=O)O)NC(C)=O)C(=O)N[C@@H](CC1CCCCC1)C(=O)N[C@@H](CS)C(=O)O (Ac-D[dGla]LI[Cha]C-OH)		9	
CC(C)(C)N1CCN(c2nc(Cl)c(Cc3ccccc3)n(CC(=O)Nc3ccccc3C(=O)NS(=O)(=O)c3ccc(C(F)(F)F)cc3)c2=O)C1=O		380	
CC1(C)CC(=O)N(C[C@@H](NC(=O)Nc2nc(Cl)c(CCC3CCCCC3)n(CC(=O)Nc3cc(F)ccc3C(=O)NS(=O)(=O)c3ccc(C(F)(F)F)cc3)c2=O)C(C)(C)C)C(=O)C1	5.4	30	EC50 (Hepatitis C virus): 7.1 µM; Ki (NS3 [2]): 2 nM; CC50 [4]: 26 µM
CC(C)(C)[C@@H](CNS(=O)(=O)c1cccnc1)NC(=O)Nc1nc(Cl)c(Cc2ccccc2)n(CC(=O)Nc2cc(F)ccc2C(=O)NS(=O)(=O)c2ccc(C(F)(F)F)cc2)c1=O		190	Ki (NS3 [2]): 40 nM
CC(C)(C)NC(=O)Nc1nc(Cl)c(CCC2CCCCC2)n(CC(=O)NC2(C(=O)NS(=O)(=O)c3ccc(C(F)(F)F)cc3)CC(OCc3ccccc3)C2)c1=O (stereo not given)	68		
O=C(Cn1c(Cc2ccccc2)c(Cl)nc(NNC(=O)c2ccccc2)c1=O)Nc1ccccc1C(=O)NS(=O)(=O)c1ccc(C(F)(F)F)cc1		1650	

The next lines start with results.

Ki (NS3 [3]) [nM]	SMILES	Ki (NS3 [1]) [nM]	also measured
87	CC(C)(C)NC(=O)Nc1nc(Cl)c(CCC2CCCCC2)n(CC(=O)Nc2cc(-c3cncnc3)ccc2C(=O)NS(=O)(=O)c2ccc(C(F)(F)F)cc2)c1=O		
70	CC(C)(C)NC(=O)Nc1nc(Cl)c(CCC2CCCCC2)n(CC(=O)Nc2ccccc2C(=O)O)c1=O		
170	CC(C)(C)NC(=O)Nc1nc(Cl)c(Cc2cccc3ccccc23)n(CC(=O)Nc2ccccc2S(=O)(=O)NC(=O)c2ccc(C(F)(F)F)cc2)c1=O		
20	COc1ccc2c(O[C@@H]3C[C@H]4C(=O)N[C@]5(C(=O)O)C[C@H]5/C=C\CCCCC[C@H](NC(=O)OC5CCCC5)C(=O)N4C3)cc(-c3csc(NC(C)C)n3)nc2c1 [CILUPREVIR]		Ki (NS3 [5]): 0.089 nM; CC50 [4]: > 0.1 µM
